Columns and labels:
Test in all cases: relative viability (nuclei count vs DMSO), 5 days (fraction); higher = more cells survive
[1] = compound: C1/C(=C\C2=CC=CS2)/C(=O)/C(=C/C3=CC=CS3)/C1 + NC(=O)Nc1cc(-c2cccc(F)c2)sc1C(=O)N[C@H]1CCCNC1 [AZD7762] (partner 0.2 µM)
Method in brief: (§1)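 Nuclei were stained with Hoechst during a one-step fixation (final 0.05% Triton X-100, 1% formaldehyde, 1 ug/ml Hoechst) carried out 5 days after dosing, then counted on 4× images. The cells, lung cancer lines in 1536-well plates, had been dosed by pin tool the day after seeding with one drug alone or a fixed anchor-drug dose plus five library-drug doses (not always all listed) in √10 steps. Relative viability is the nuclei count in treated wells divided by that in vehicle wells, and each value is the median of duplicate plates.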

TPCA-1 + Palbociclib = compound: C1=CC(=CC=C1C2=CC(=C(S2)NC(=O)N)C(=O)N)F [TPCA-1] + CC(=O)c1c(C)c2cnc(Nc3ccc(N4CCNCC4)cn3)nc2n(C2CCCC2)c1=O [Palbociclib] (partner 0.5 µM)
Method in brief: as §1

TPCA-1 + Linsitinib = compound: C1=CC(=CC=C1C2=CC(=C(S2)NC(=O)N)C(=O)N)F [TPCA-1] + C[C@]1(O)C[C@@H](c2nc(-c3ccc4ccc(-c5ccccc5)nc4c3)c3c(N)nccn32)C1 [Linsitinib] (partner 1 µM)
Method in brief: as §1

[2] = compound: C[C@]12O[C@H](C[C@]1(O)CO)n1c3ccccc3c3c4c(c5c6ccccc6n2c5c31)CNC4=O [Lestaurtinib] + CC(=O)c1c(C)c2cnc(Nc3ccc(N4CCNCC4)cn3)nc2n(C2CCCC2)c1=O [Palbociclib] (partner 0.5 µM)
Method in brief: as §1

| Cell Line | relative viability ([1]; first compound 0.2 µM) | relative viability ([1]; first compound 0.6325 µM) | relative viability ([1]; first compound 2 µM) | relative viability ([1]; first compound 6.325 µM) | relative viability ([1]; first compound 20 µM) | relative viability (TPCA-1 + Palbociclib; first compound 0.04 µM) | relative viability (TPCA-1 + Palbociclib; first compound 0.1265 µM) | relative viability (TPCA-1 + Palbociclib; first compound 0.4 µM) | relative viability (TPCA-1 + Palbociclib; first compound 1.265 µM) | relative viability (TPCA-1 + Palbociclib; first compound 4 µM) | relative viability (TPCA-1 + Linsitinib; first compound 0.04 µM) | relative viability (TPCA-1 + Linsitinib; first compound 0.1265 µM) | relative viability (TPCA-1 + Linsitinib; first compound 0.4 µM) | relative viability (TPCA-1 + Linsitinib; first compound 1.265 µM) | relative viability (TPCA-1 + Linsitinib; first compound 4 µM) | relative viability ([2]; first compound 0.005 µM) | relative viability ([2]; first compound 0.01581 µM) | relative viability ([2]; first compound 0.05 µM) | relative viability ([2]; first compound 0.1581 µM) | relative viability ([2]; first compound 0.5 µM) |
| --- | --- | --- | --- | --- | --- | --- | --- | --- | --- | --- | --- | --- | --- | --- | --- | --- | --- | --- | --- | --- |
| 201T | 0.626 | 0.704 | 0.689 | 0.411 | 0.58 | 0.376 | 0.362 | 0.385 | 0.386 | 0.363 | 1.03 | 0.982 | 1.09 | 1.09 | 0.835 | 0.398 | 0.45 | 0.364 | 0.405 | 0.399 |
| A549 |  |  |  |  |  |  |  |  |  |  | 0.627 | 0.567 | 0.638 | 0.469 | 0.314 |  |  |  |  |  |
| A-427 | 0.78 | 0.836 | 0.822 | 0.724 | 0.72 | 0.555 | 0.507 | 0.545 | 0.561 | 0.553 | 1.13 | 1.06 | 1.17 | 1.09 | 1.12 | 0.506 | 0.554 | 0.521 | 0.444 | 0.207 |
| ABC-1 | 1.01 | 1.04 | 0.905 | 0.528 | 1 | 0.967 | 0.589 | 0.584 | 0.612 | 0.754 | 0.936 | 0.714 | 0.662 | 0.579 | 0.524 | 0.618 | 0.625 | 0.647 | 0.619 | 0.42 |
| BEN | 0.739 | 0.635 | 0.774 | 0.643 | 0.679 | 0.474 | 0.468 | 0.531 | 0.577 | 0.422 | 0.973 | 0.728 | 1 | 0.877 | 0.692 | 0.483 | 0.537 | 0.467 | 0.432 | 0.399 |
| CAL-12T | 0.597 | 0.84 | 0.592 | 0.537 | 0.547 | 0.585 | 0.507 | 0.445 | 0.416 | 0.172 | 0.868 | 0.754 | 0.73 | 0.763 | 0.411 | 0.365 | 0.526 | 0.409 | 0.302 | 0.183 |
| COR-L23 |  |  |  |  |  | 0.316 | 0.289 | 0.272 | 0.206 | 0.169 | 1.01 | 0.771 | 0.975 | 0.821 | 0.565 | 0.337 | 0.319 | 0.223 | 0.248 | 0.11 |
| COR-L 105 |  |  |  |  |  | 0.419 | 0.457 | 0.419 | 0.379 | 0.359 | 0.959 | 1.03 | 0.801 | 0.862 | 0.781 | 0.434 | 0.425 | 0.376 | 0.419 | 0.348 |
| Calu-6 |  |  |  |  |  |  |  |  |  |  | 1.15 | 0.941 | 0.962 | 0.847 | 0.68 |  |  |  |  |  |
| ChaGo-K-1 | 0.91 | 0.9 | 0.873 | 0.581 | 0.51 | 0.976 | 0.663 | 0.795 | 0.891 | 0.733 |  |  |  |  |  | 0.977 | 0.89 | 0.77 | 0.779 | 0.671 |
| EBC-1 |  |  |  |  |  |  |  |  |  |  | 1.06 | 0.825 | 0.815 | 0.844 | 0.814 |  |  |  |  |  |
| EKVX | 0.631 | 0.685 | 0.764 |  | 0.695 | 0.451 |  | 0.469 | 0.269 | 0.394 | 1.1 | 0.868 | 1.08 | 0.69 | 0.846 | 0.346 |  | 0.355 | 0.421 | 0.426 |
| EMC-BAC-2 | 1.19 | 1.1 | 1.09 | 0.91 | 1.12 | 0.513 | 0.519 | 0.524 | 0.413 | 0.485 | 0.848 | 0.739 | 0.822 | 0.837 | 0.66 | 0.505 | 0.51 | 0.456 | 0.353 | 0.305 |
| EPLC-272H | 0.179 | 0.276 | 0.182 | 0.221 | 0.183 | 0.355 | 0.3 | 0.328 | 0.326 | 0.297 | 1.3 | 1.09 | 1.33 | 1.03 | 1.01 | 0.359 | 0.317 | 0.269 | 0.3 | 0.353 |
| H3255 | 0.916 | 0.878 | 0.945 | 0.842 | 0.914 | 0.275 | 0.292 | 0.285 | 0.293 | 0.279 | 1.06 | 0.826 | 0.95 | 0.866 | 0.708 | 0.301 | 0.349 | 0.324 | 0.337 | 0.249 |
| HARA | 0.431 | 0.271 | 0.319 | 0.361 | 0.336 | 0.249 | 0.298 | 0.282 | 0.27 | 0.176 | 0.916 | 0.856 | 1.05 | 0.924 | 0.804 | 0.233 | 0.32 | 0.278 | 0.234 | 0.243 |
| HCC-15 | 1.14 | 1.33 | 1.41 | 1.06 | 1.13 | 0.835 | 0.698 | 0.801 | 0.694 | 0.472 | 0.951 | 0.886 | 0.82 | 0.895 | 0.802 | 0.751 | 0.779 | 0.68 | 0.687 | 0.187 |
| HCC-44 | 1.03 | 1.03 | 0.857 | 0.84 | 1.03 | 0.987 | 0.902 | 0.995 | 0.995 | 1.03 | 0.608 | 0.63 | 0.705 | 0.656 | 0.666 | 0.958 | 1 | 1.04 | 1.1 | 0.732 |
| HCC-78 | 0.649 | 0.729 | 0.76 | 0.68 | 0.658 | 0.464 | 0.455 | 0.492 | 0.48 | 0.387 | 0.555 | 0.429 | 0.506 | 0.413 | 0.399 | 0.453 | 0.545 | 0.53 | 0.557 | 0.427 |

— the supplement of paper PMC10307832
